Measured values as given in patent US20210369583A1, “COMPOSITIONS FOR PROVIDING SKIN CARE BENEFITS AND METHODS OF USE” (Danisco US Inc., priority 2018, published 2021).

Assays:
HO-1 (Heme-Oxygenase-1) = assay: Immunostaining of HO-1 in human skin explants, image analysis; type: cell-based
Procedure: (§1) 59 human skin explants of an average diameter of 14 mm (±1 mm) were prepared on an abdoplasty coming from a person. The explants were kept in survival in BEM culture medium at 37° C. in a humid, 5%-CO2 atmosphere.
(§2) The tested products were topically applied on the basis of 2 μl per cm^2 and spread using a small spatula twice a day (morning and evening) on day 0, 1, 2, 3 and 4.
(§3) On D4, the explants of the batches ML and PML were placed on the 3D grid with 900 μl of HBSS and placed into the PolluBox® system.
(§4) 3 mL of the solution <<ML>> (supplemented with 150 μl/ml of NaCl 0.9%) were exposed by vaporization for 1 hour and half, as shown in the figure below.
Heme-Oxygenase is a phase II skin anti-oxidant enzyme which generates cell anti-oxidant molecules. […] The immunostaining was performed using an automated slide processing system (Autostainer, Dako) and assessed by microscopical observation. […]
The images analyses were performed on all the images (9 to 12 images) of each batch using the CellD storing software (Olympus Microscopy, Matrix Optics (M)SdnBhd, Taman Mayhang, Maylasia). For each batch of explants, the percentage of the region of interest covered by the staining (stained surface percentage) was determined by image analysis. […]
Analyzed batches: T, P2, ML, P2ML (4 batches, 3 explants/batch, so 12 explants at day 5 referred to as TJ5, P2J5, MLJ5, P2MLJ5.

[1] = test system: living human skin explants; assay: Biochemical assay of MDA (lipid peroxidation) on living human skin explants exposed to pollutants; type: cell-based
Procedure: Product A (Table 11) was diluted in water to obtain the following products at concentrations: product P1=A at 4%, product P2=A at 2% and product P3=A at 1%.
as §1, §2, §3, §4
The MDA assay was realized with an enhanced method of the TBARs (Thiobarbituric Acid Reactive Species) assay. The MDA was assayed in HBSS medium by addition of TBARs solution (thiobarbituric acid, hydrochloric acid and tricholoroacetic acid) and placed in a water bath (80° C. for 15 minutes). A lot of substances (like glucose) which are not related with lipoperoxidation, react with thiobarbituric acid (ThioBarbituric Acid Reagents=TBARS), so to enhance the specificity of the assay, the MDA was extracted by a liquid/liquid extraction with butanol. The MDA in butanol was measured in spectrofluorimetry (excitation: 515 nm, emission: 550 nm) using a Tecan Infinite M200 Pro microplate reader. Using this assay, MDA contained in the culture medium BEMc on […] was measured for the 4 explants per batch. The MDA concentration was expressed in pmol of MDA/ml of the medium. Concerned batches: all batches on day 5, 4 explants per batch.
The average of the blank batch TJ5 was calculated (154.0 nmol/L). Then, for each explant of MLJ5, this average value was subtracted from […]. That corresponds to calculating the delta (increase) of MDA induced by ML for each explant compared to the average of the batch without ML, it is ΔML.
These average deltas were then compared to the average delta of MDA induction without treatment (ΔML).

SMILES: O=C(O)[C@@H]1CCCN1 [Combination P4, L-Proline]
- effect on pollutant-induced HO-1 (HO-1 (Heme-Oxygenase-1); after pollutants exposure): strongly reduced the effect of the pollutants
- effect on HO-1 expression (HO-1 (Heme-Oxygenase-1); without pollutants, D5): does not seem to affect the HO-1 expression
- MDA, variation ΔPML vs ΔML ([1]; MDA induction by pollutants, day 5): −34% #^
- reduction of the increase of MDA ([1]; after pollutant exposure (ΔPML vs ΔML)): 34%
- MDA, variation PML vs ML ([1]; after pollutants exposure, day 5): −10% ns
